Measured values reported in patent US10294202B2, “Pyrrolidinones as herbicides” (FMC Corporation, priority 2013, dated 2019).

Assays:
corn [1] = experiment: Test C pre-/postemergence herbicide test; type: in vivo, Zea mays
Summary of the method: (§1)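 Test compounds, formulated in a surfactant-containing non-phytotoxic solvent blend, are applied to seeded loam/sand soil (preemergence) and to young plants at the 1- to 4-leaf stage in peat-based medium (postemergence). Plants stay 13 to 15 days under greenhouse conditions, then are scored visually relative to controls, 0 = no effect, 100 = complete control.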

pigweed = experiment: Test A pre-/postemergence herbicide test; type: in vivo, Amaranthus retroflexus
Summary of the method: (§2)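 Planted in loam–sand blend; treated the same day preemergence by directed soil spray, while separately grown plants at one- to two-leaf stage got postemergence spray. Compared visually with untreated controls after approximately 10 days; 100 means complete control.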

morningglory = experiment: Test C pre-/postemergence herbicide test; type: in vivo, Ipomoea coccinea; conditions: for Morningglory plant response rating: scale 0 to 100, 0 is no effect and 100 is complete control
Summary of the method: as §1

nutsedge, yellow = experiment: Test C pre-/postemergence herbicide test; type: in vivo, Cyperus esculentus; conditions: for Nutsedge, Yellow plant response rating: scale 0 to 100, 0 is no effect and 100 is complete control
Summary of the method: as §1

ducksalad = experiment: Test B flooded paddy test; type: in vivo, Heteranthera limosa; conditions: 250 g ai/ha, Flood; scale of 0 to 100 where 0 is no effect and 100 is complete control
Summary of the method: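 Paddy-water application at a 3 cm flood, young plants having two leaves. Water level maintained; greenhouse, 13–15 days; visual 0–100 control rating.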

soybean = experiment: Test C pre-/postemergence herbicide test; type: in vivo, Glycine max; conditions: for Soybean plant response rating: scale 0 to 100, 0 is no effect and 100 is complete control
Summary of the method: as §1

barnyardgrass = experiment: Test A pre-/postemergence herbicide test; type: in vivo, Echinochloa crus-galli
Summary of the method: as §2

lambsquarters = experiment: Test C pre-/postemergence herbicide test; type: in vivo, Chenopodium album; conditions: for Lambsquarters plant response rating: scale 0 to 100, 0 is no effect and 100 is complete control
Summary of the method: as §1

blackgrass = experiment: Test C pre-/postemergence herbicide test; type: in vivo, Alopecurus myosuroides
Summary of the method: as §1

corn [2] = experiment: Test A pre-/postemergence herbicide test; type: in vivo, Zea mays
Summary of the method: as §2

[3] = Postemergence, 31 g ai/ha, scale 0 (no effect) to 100 (complete control)
[4] = Postemergence, 62 g ai/ha, scale 0 to 100 (0 no effect, 100 complete control)
[5] = Postemergence, 125 g ai/ha, scale 0 to 100 (0 no effect, 100 complete control)
[6] = Postemergence, 250 g ai/ha, scale 0 to 100 (0 no effect, 100 complete control)
[7] = Preemergence, 31 g ai/ha, scale 0 to 100 (0 no effect, 100 complete control)
[8] = Preemergence, 62 g ai/ha, scale 0 to 100
[9] = Preemergence, 125 g ai/ha, scale 0 to 100 (0 no effect, 100 complete control)
[10] = Preemergence, 250 g ai/ha, scale 0 to 100 (0 no effect, 100 complete control)
[11] = Postemergence, 1000 g ai/ha, 0 to 100 scale (0 no effect, 100 complete control)
[12] = Preemergence, 1000 g ai/ha, visual rating on 0 to 100 scale (0 no effect, 100 complete control), approx. 10 days
[13] = Preemergence, 31 g ai/ha, scale 0 to 100, 0 is no effect and 100 is complete control
[14] = Postemergence, 125 g ai/ha, 0 to 100 scale, 0 no effect, 100 complete control
[15] = Postemergence, 500 g ai/ha, 0 to 100 scale (0 no effect, 100 complete control)
[16] = Preemergence, 125 g ai/ha, visual rating on 0 to 100 scale (0 no effect, 100 complete control)
[17] = preemergence, 500 g ai/ha, 0 to 100 scale
[18] = preemergence, 500 g ai/ha, 0 to 100 scale (0 no effect, 100 complete control)

Compound: O=C1NCC(c2cc(F)c(F)c(F)c2)C1C(=O)Nc1ccccc1F (racemic) [Compound 34]
- Plant response rating, Corn (corn [1]; [3]): 0
- Plant response rating, Corn (corn [1]; [4]): 0
- Plant response rating, Corn (corn [1]; [5]): 0
- Plant response rating, Corn (corn [1]; [6]): 0
- Corn plant response rating (corn [1]; [7]): 0
- Plant response rating, Corn (corn [1]; [8]): 0
- Plant response rating, Corn (corn [1]; [9]): 0
- Plant response rating, Corn (corn [1]; [10]): 10
- Plant response rating, Pigweed (pigweed; [11]): 0
- Plant response rating, Pigweed (pigweed; [12]): 0
- Plant response rating, Morningglory (morningglory; [3]): 0
- Plant response rating, Morningglory (morningglory; [4]): 5
- Plant response rating, Morningglory (morningglory; [5]): 5
- Plant response rating, Morningglory (morningglory; [6]): 10
- Plant response rating, Morningglory (morningglory; [8]): 0
- Plant response rating, Morningglory (morningglory; [9]): 5
- Plant response rating, Nutsedge, Yellow (nutsedge, yellow; [3]): 5
- Plant response rating, Nutsedge, Yellow (nutsedge, yellow; [4]): 5
- Plant response rating, Nutsedge, Yellow (nutsedge, yellow; [5]): 10
- Plant response rating, Nutsedge, Yellow (nutsedge, yellow; [6]): 10
- Plant response rating, Nutsedge, Yellow (nutsedge, yellow; [8]): 0
- Plant response rating, Nutsedge, Yellow (nutsedge, yellow; [9]): 0
- Plant response rating, Ducksalad (ducksalad): 95
- Plant response rating, Soybean (soybean; [3]): 0
- Plant response rating, Soybean (soybean; [4]): 0
- Plant response rating, Soybean (soybean; [5]): 5
- Plant response rating, Soybean (soybean; [6]): 10
- Plant response rating, Soybean (soybean; [8]): 0
- Plant response rating, Soybean (soybean; [9]): 5
- Plant response rating, Barnyardgrass (barnyardgrass; [11]): 90
- Plant response rating, Barnyardgrass (barnyardgrass; [12]): 90
- Plant response rating, Lambsquarters (lambsquarters; [3]): 0
- Plant response rating, Lambsquarters (lambsquarters; [4]): 0
- Plant response rating, Lambsquarters (lambsquarters; [5]): 10
- Plant response rating, Lambsquarters (lambsquarters; [6]): 55
- Plant response rating, Lambsquarters (lambsquarters; [8]): 40
- Plant response rating, Lambsquarters (lambsquarters; [9]): 80
- Plant response rating, Blackgrass (blackgrass; [3]): 0
- Plant response rating, Blackgrass (blackgrass; [4]): 0
- Plant response rating, Blackgrass (blackgrass; [5]): 0
- Plant response rating, Blackgrass (blackgrass; [6]): 0
- Blackgrass plant response rating (blackgrass; [7]): 0
- Plant response rating, Blackgrass (blackgrass; [8]): 0
- Plant response rating, Blackgrass (blackgrass; [9]): 10
- Plant response rating, Blackgrass (blackgrass; [10]): 45
- Plant response rating, Corn (corn [2]; [11]): 50
- Plant response rating, Corn (corn [2]; [12]): 30

Compound: O=C1NCC(c2cccc(Br)c2)C1C(=O)Nc1ccccc1F (stereo not drawn) [Compound 66]
- Corn plant response rating (corn [1]; [13]): 0
- Plant response rating, Corn (corn [1]; [8]): 0
- Plant response rating, Corn (corn [1]; [9]): 10
- Plant response rating, Corn (corn [1]; [10]): 20
- Plant response rating, Pigweed (pigweed; [14]): 0
- Plant response rating, Pigweed (pigweed; [15]): 0
- Pigweed plant response rating (pigweed; [16]): 0
- Plant response rating, Pigweed (pigweed; [17]): 0
- Morningglory plant response rating (morningglory; Preemergence, 31 g ai/ha): 15
- Plant response rating, Morningglory (morningglory; [8]): 25
- Plant response rating, Morningglory (morningglory; [9]): 35
- Nutsedge, Yellow plant response rating (nutsedge, yellow; Preemergence, 31 g ai/ha): 0
- Plant response rating, Nutsedge, Yellow (nutsedge, yellow; [8]): 0
- Plant response rating, Nutsedge, Yellow (nutsedge, yellow; [9]): 0
- Plant response rating, Ducksalad (ducksalad): 75
- Soybean plant response rating (soybean; Preemergence, 31 g ai/ha): 15
- Plant response rating, Soybean (soybean; [8]): 20
- Plant response rating, Soybean (soybean; [9]): 20
- Plant response rating, Barnyardgrass (barnyardgrass; [14]): 80
- Plant response rating, Barnyardgrass (barnyardgrass; [15]): 80
- Barnyardgrass plant response rating (barnyardgrass; [16]): 80
- Plant response rating, Barnyardgrass (barnyardgrass; [18]): 90
- Lambsquarters plant response rating (lambsquarters; Preemergence, 31 g ai/ha): 0
- Plant response rating, Lambsquarters (lambsquarters; [8]): 0
- Plant response rating, Lambsquarters (lambsquarters; [9]): 0
- Blackgrass plant response rating (blackgrass; [13]): 0
- Plant response rating, Blackgrass (blackgrass; [8]): 0
- Plant response rating, Blackgrass (blackgrass; [9]): 0
- Plant response rating, Blackgrass (blackgrass; [10]): 20
- Plant response rating, Corn (corn [2]; [14]): 20
- Plant response rating, Corn (corn [2]; [15]): 80
- Corn plant response rating (corn [2]; [16]): 20
- Plant response rating, Corn (corn [2]; [17]): 20

Compound: O=C1NCC(c2ccc3c(c2)OC(F)(F)O3)C1C(=O)Nc1cccc(F)c1F (stereo not drawn) [Compound 62]
- Corn plant response rating (corn [1]; [7]): 20
- Plant response rating, Corn (corn [1]; [8]): 20
- Plant response rating, Corn (corn [1]; [9]): 30
- Plant response rating, Corn (corn [1]; [10]): 55
- Plant response rating, Pigweed (pigweed; [14]): 30
- Plant response rating, Pigweed (pigweed; [15]): 70
- Pigweed plant response rating (pigweed; [16]): 0
- Plant response rating, Pigweed (pigweed; [17]): 30
- Plant response rating, Morningglory (morningglory; [8]): 10
- Plant response rating, Morningglory (morningglory; [9]): 15
- Plant response rating, Nutsedge, Yellow (nutsedge, yellow; [8]): 10
- Plant response rating, Nutsedge, Yellow (nutsedge, yellow; [9]): 20
- Plant response rating, Ducksalad (ducksalad): 75
- Plant response rating, Soybean (soybean; [8]): 30
- Plant response rating, Soybean (soybean; [9]): 35
- Plant response rating, Barnyardgrass (barnyardgrass; [14]): 70
- Plant response rating, Barnyardgrass (barnyardgrass; [15]): 80
- Barnyardgrass plant response rating (barnyardgrass; [16]): 80
- Plant response rating, Barnyardgrass (barnyardgrass; [18]): 80
- Plant response rating, Lambsquarters (lambsquarters; [8]): 65
- Plant response rating, Lambsquarters (lambsquarters; [9]): 70
- Blackgrass plant response rating (blackgrass; [7]): 0
- Plant response rating, Blackgrass (blackgrass; [8]): 45
- Plant response rating, Blackgrass (blackgrass; [9]): 80
- Plant response rating, Blackgrass (blackgrass; [10]): 80
- Plant response rating, Corn (corn [2]; [14]): 40
- Plant response rating, Corn (corn [2]; [15]): 70
- Corn plant response rating (corn [2]; [16]): 0
- Plant response rating, Corn (corn [2]; [17]): 0

Compound: O=C1NCC(c2cccc(OC(F)(F)F)c2)C1C(=O)Nc1cccc(F)c1F (stereo not drawn) [Compound 68]
- Corn plant response rating (corn [1]; [13]): 15
- Plant response rating, Corn (corn [1]; [8]): 25
- Plant response rating, Corn (corn [1]; [9]): 25
- Plant response rating, Corn (corn [1]; [10]): 50
- Plant response rating, Pigweed (pigweed; [14]): 40
- Plant response rating, Pigweed (pigweed; [15]): 60
- Pigweed plant response rating (pigweed; [16]): 0
- Plant response rating, Pigweed (pigweed; [17]): 30
- Morningglory plant response rating (morningglory; Preemergence, 31 g ai/ha): 0
- Plant response rating, Morningglory (morningglory; [8]): 0
- Plant response rating, Morningglory (morningglory; [9]): 15
- Nutsedge, Yellow plant response rating (nutsedge, yellow; Preemergence, 31 g ai/ha): 10
- Plant response rating, Nutsedge, Yellow (nutsedge, yellow; [8]): 10
- Plant response rating, Nutsedge, Yellow (nutsedge, yellow; [9]): 10
- Plant response rating, Ducksalad (ducksalad): 90
- Soybean plant response rating (soybean; Preemergence, 31 g ai/ha): 0
- Plant response rating, Soybean (soybean; [8]): 0
- Plant response rating, Soybean (soybean; [9]): 10
- Plant response rating, Barnyardgrass (barnyardgrass; [14]): 70
- Plant response rating, Barnyardgrass (barnyardgrass; [15]): 80
- Barnyardgrass plant response rating (barnyardgrass; [16]): 80
- Plant response rating, Barnyardgrass (barnyardgrass; [18]): 90
- Lambsquarters plant response rating (lambsquarters; Preemergence, 31 g ai/ha): 55
- Plant response rating, Lambsquarters (lambsquarters; [8]): 55
- Plant response rating, Lambsquarters (lambsquarters; [9]): 65
- Blackgrass plant response rating (blackgrass; [13]): 0
- Plant response rating, Blackgrass (blackgrass; [8]): 60
- Plant response rating, Blackgrass (blackgrass; [9]): 60
- Plant response rating, Blackgrass (blackgrass; [10]): 80
- Plant response rating, Corn (corn [2]; [14]): 20
- Plant response rating, Corn (corn [2]; [15]): 90
- Corn plant response rating (corn [2]; [16]): 0
- Plant response rating, Corn (corn [2]; [17]): 0

Compound: Cc1ccccc1NC(=O)C1C(=O)NCC1c1cc(F)c(F)c(F)c1 (racemic) [Compound 35]
- Corn plant response rating (corn [1]; [7]): 0
- Plant response rating, Corn (corn [1]; [8]): 0
- Plant response rating, Corn (corn [1]; [9]): 5
- Plant response rating, Corn (corn [1]; [10]): 5
- Plant response rating, Pigweed (pigweed; [11]): 0
- Plant response rating, Pigweed (pigweed; [12]): 0
- Plant response rating, Morningglory (morningglory; [8]): 10
- Plant response rating, Morningglory (morningglory; [9]): 10
- Plant response rating, Nutsedge, Yellow (nutsedge, yellow; [8]): 0
- Plant response rating, Nutsedge, Yellow (nutsedge, yellow; [9]): 0
- Plant response rating, Ducksalad (ducksalad): 80
- Plant response rating, Soybean (soybean; [8]): 0
- Plant response rating, Soybean (soybean; [9]): 0
- Plant response rating, Barnyardgrass (barnyardgrass; [11]): 90
- Plant response rating, Barnyardgrass (barnyardgrass; [12]): 90
- Plant response rating, Lambsquarters (lambsquarters; [8]): 0
- Plant response rating, Lambsquarters (lambsquarters; [9]): 0
- Blackgrass plant response rating (blackgrass; [7]): 0
- Plant response rating, Blackgrass (blackgrass; [8]): 0
- Plant response rating, Blackgrass (blackgrass; [9]): 5
- Plant response rating, Blackgrass (blackgrass; [10]): 50
- Plant response rating, Corn (corn [2]; [11]): 20
- Plant response rating, Corn (corn [2]; [12]): 20
